# In patent US20250304927A1, “PRO-PEPTIDE VARIANTS FOR MODULATING ACTIVITY OF TRANSGLUTAMINASES” (CURIE CO. INC., priority 2022, published 2025):
# Where no end group is shown, it is not given here.
# T1: evolved variant of mature Streptomyces mobaraensis transglutaminase, including a two amino acid linker and … (Streptomyces mobaraensis, UniProt P81453 79-407)
# T1 chain: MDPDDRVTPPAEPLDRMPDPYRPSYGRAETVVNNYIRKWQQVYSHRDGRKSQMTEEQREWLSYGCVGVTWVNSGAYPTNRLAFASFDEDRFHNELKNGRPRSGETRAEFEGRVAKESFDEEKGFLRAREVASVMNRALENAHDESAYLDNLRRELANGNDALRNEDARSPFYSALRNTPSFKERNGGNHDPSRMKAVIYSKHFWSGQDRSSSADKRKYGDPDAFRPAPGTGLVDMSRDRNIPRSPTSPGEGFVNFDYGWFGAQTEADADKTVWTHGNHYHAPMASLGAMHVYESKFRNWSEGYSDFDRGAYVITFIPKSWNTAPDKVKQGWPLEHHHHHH
# Experiments:
# [1] = target: T2, thermostable mature transglutaminase variant (SEQ ID NO: 3) (Streptomyces mobaraensis, UniProt P81453); assay type: biochemical; conditions: increase in transglutaminase activity relative to wild-type pro-peptide, casein assay; Method A
# T2 construct: made in house; host or cells: E. coli (lysate)
# T2 sequence (P81453 other isoform, or with tags, fused parts or gaps): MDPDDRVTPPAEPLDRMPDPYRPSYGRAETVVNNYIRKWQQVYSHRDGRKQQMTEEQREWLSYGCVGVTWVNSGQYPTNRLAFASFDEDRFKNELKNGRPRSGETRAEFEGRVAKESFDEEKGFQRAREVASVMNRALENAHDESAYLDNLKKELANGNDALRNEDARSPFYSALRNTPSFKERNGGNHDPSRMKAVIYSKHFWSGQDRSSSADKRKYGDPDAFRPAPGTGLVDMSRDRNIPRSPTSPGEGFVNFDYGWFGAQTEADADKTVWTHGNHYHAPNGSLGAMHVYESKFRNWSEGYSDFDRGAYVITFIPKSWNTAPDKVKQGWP
# Excerpt: Method A. A bicistronic expression vector encoding the wild-type pro-domain of transglutaminase (SEQ ID NO: 2) and a thermostable mature transglutaminase variant (SEQ ID NO: 3) as separate polypeptides was cloned as described in PCT/US20/49226 (WO2021/178001 A1). The vector was used as a template for synthesis of a random mutagenesis library targeting the pro-domain coding sequence to create pro-domain peptide variants.
# Method A. Plasmid libraries containing mature transglutaminase and variant pro-domain peptides were plated on Luria-Bertani (LB) agar plates containing 50 μg/mL of kanamycin. After incubation for at least 16 hours at 37° C., colonies were picked and inoculated into 1 mL of LB broth with 50 μg/mL kanamycin in one well of a 96 deep well culture plate. The plate was covered with a breathable seal and incubated overnight at 37° C. with 400 rpm of shaking. 10 μL of the seed culture was used to inoculate 1 mL of media in a 96 deep well culture plate for expression. The expression plate was allowed to grow for 6-8 hours at 30° C. Expression was then induced by adding isopropyl beta-D-1-thiogalactopyranoside (IPTG) to a final concentration of 1 mM and the temperature was reduced to 20° C. while growth continued for an additional 15 hours. Cells were harvested by centrifugation at 4000 rcf for 30 minutes and pellets were frozen at −80° C.
# A secondary screen was performed to determine initial rate of transglutaminase in the presence of the pro-peptide variants using transglutaminase-catalyzed labeling of casein with dansylcadaverine (e.g., a commercially available kit such as the Transglutaminase Fluorogenic Activity Assay Kit, T036, Zedira, Germany). Transglutaminase activity was monitored by measuring the fluorescence (excitation wavelength 332 nm; emission wavelength 500 nm) using a BioTek Synergy H1 microplate reader. Transglutaminase-catalyzed covalent coupling (crosslinking) of monodansylcadaverine with N,N-dimethylcasein produces a product that causes a shift in intensity and wavelength of fluorescence of the dansyl group now linked to the casein. The relative transglutaminase activity is shown by increase of fluorescence intensity over time. The data were normalized for transglutaminase expression levels in E. coli lysate as described above. Pro-domain variants were identified based on their ability to alter the activity of the mature transglutaminase enzyme. […]
# It is believed that these pro-peptide variants have reduced binding affinity with mature mTgase.
# [2] = target: T1, evolved variant of mature Streptomyces …; assay: cell-based or functional assay
Molecule,Reduction in binding affinity of inhibitory peptide relative to WT [1] [fold],Inhibition [2] [fold]
MDNGAGEETKSYAGTYRLTADDVANINALNESAPAASSAGPSFRAP [Variant E14G],>1.2,–
MDNGAGGETKSYAETYRLTADDVANINALNESAPAASSAGPSFRAP [Variant E7G],>1.2,–
MDNGAGEETKSYAETYRLTADPVANINALNESAPAASSAGPSFRAP [Variant D22P],>1.2,–
MDNGAGEETKSYAETYRLTADGVANINALNESAPAASSAGPSFRAP [Variant D22G],>1.2,–
MDNGAGEETKSYAETYRLTADDVANINALNESAPAASPAGPSFRAP [Variant S38P],>1.2,–
MDNGAGEETRSYAETYRLTADDVANINALNESAPAASSAGPSFRAP [Variant K10R],>1.2,–
MDNGAGEETKSYAETYRLTADDVANYNALNESAPAASSAGPSFRAP [Variant I26Y],>1.2,–
MDNGAGEETKSYAETYRLTADDVANINALNESAPAASDAGPSFRAP [Variant S38D],>1.2,–
MDNGAGEETKLYAETYRLTADDVANINALNESAPAASSAGPSFRAP [Variant S11L],>1.2,–
MDNGAGEETKSYAETYRSTADDVANINALNESAPAASSAGPSFRAP [Variant L18S],>1.2,–
MDNGAGEETKSYAHTYRLTADDVANINALNESAPAASSAGPSFRAP [Variant E14H],>1.2,–
MDNGAGEETKSYAETYRKTADDVANINALNESAPAASSAGPSFRAP [Variant L18K],>1.2,–
MDNGAGEETKSYATTYRLTADDVANINALNESAPAASSAGPSFRAP [Variant E14T],>1.2,–
MDNGAGEETKGYAETYRLTADDVANINALNESAPAASSAGPSFRAP [Variant S11G],>5,–
MDNGAGEETKSYAETYRLTADQVANINALNESAPAASSAGPSFRAP [Variant D22Q],>1.2,–
MDNGAGEETKSYAVTYRLTADDVANINALNESAPAASSAGPSFRAP [Variant E14V],>1.2,–
MDNGAGEETKHYAETYRLTADDVANINALNESAPAASSAGPSFRAP [Variant S11H],>1.2,–
MDNGAGEETKSNAETYRLTADDVANINALNESAPAASSAGPSFRAP [Variant Y12N],>1.2,–
MDNGAGEETKSYAETYRLTADDVANINALNESAPAASYAGPSFRAP [Variant S38Y],>1.2,–
MDNGAGEETKSVAETYRLTADDVANINALNESAPAASSAGPSFRAP [Variant Y12V],>1.2,–
MDNGAGEETKSLAETYRLTADDVANINALNESAPAASSAGPSFRAP [Variant Y12L],>1.2,–
MDNGAGEETKSYAETYRLTADYVANINALNESAPAASSAGPSFRAP [Variant D22Y],>1.2,–
MDNGAGEETKSYAETYRLTADRVANINALNESAPAASSAGPSFRAP [Variant D22R],>1.2,–
MDNGAGEETKSYAETYRLTAD [ΔD22-P46],>1.2,–
MDNGAGEETKYYAETYRLTADDVANINALNESAPAASSAGPSFRAP [Variant S11Y],>1.2,–

Molecule,Reduction in binding affinity of inhibitory peptide relative to WT [1] [fold],Inhibition [2] [fold]
MDNGAGEETKSTAETYRLTADDVANINALNESAPAASSAGPSFRAP [Variant Y12T],>1.2,–
MDNGAGEETKSGAETYRLTADDVANINALNESAPAASSAGPSFRAP [Variant Y12G],>1.2,–
MDNGAGEETKSSAETYRLTADDVANINALNESAPAASSAGPSFRAP [Variant Y12S],>5,–
MDNGAGEETKSYADTYRLTADDVANINALNESAPAASSAGPSFRAP [Variant E14D],>1.2,–
MDNGAGEETKSYAETYRLTADDVAN [ΔI26-P46],>1.2,–
"MSNGAGSETKSYAETYRLTADQVANINALNESAPAASSAGPSFRAP [pro-peptide variant D2S, E7S, D22Q (Method B)]",–,> 2
"MINGAGSETKSYAETYRLTAIDVANINALNESAPAASSAGPSFRAP [pro-peptide variant D2I, E7S, D21I (Method B)]",–,> 1.2
"MSNGAGEETKSYAETYRVTADQVANINALNESAPAASSAGPSFRAP [pro-peptide variant D2S, L18V, D22Q (Method B)]",–,> 2
"MSNGAGSETKSYAETYRLTADDVANINALNESAPAASSAGPSFRAP [pro-peptide variant D2S, E7S (Method B)]",–,> 2
"MSNGAGSETKSYAETYRLTATQVANINALNESAPAASSAGPSFRAP [pro-peptide variant D2S, E7S, D21T, D22Q (Method B)]",–,> 2
"MINGAGSETKSYAETYRLTADQVANINALNESAPAASSAGPSFRAP [pro-peptide variant D2I, E7S, D22Q (Method B)]",–,> 2
"MSNGAGEETKSYAETYRLTADQVANINALNESAPAASSAGPSFRAP [pro-peptide variant D2S, D22Q (Method B)]",–,> 2
"MDNGAGSETKSYAETYRVTARDVANINALNESAPAASSAGPSFRAP [pro-peptide variant E7S, L18V, D21R (Method B)]",–,> 2
"MDNGAGEETKSYAETYRLTATQVANINALNESAPAASSAGPSFRAP [pro-peptide variant D21T, D22Q (Method B)]",–,> 1.2
MDNGAGEETKSYAETYRVTADDVANINALNESAPAASSAGPSFRAP [pro-peptide variant L18V (Method B)],–,> 2
"MDNGAGSETKSYAETYRLTARDVANINALNESAPAASSAGPSFRAP [pro-peptide variant E7S, D21R (Method B)]",–,> 1.2
"MDNGAGSETKSYAETYRLTATDVANINALNESAPAASSAGPSFRAP [pro-peptide variant E7S, D21T (Method B)]",–,> 1.2
"MINGAGEETKSYAETYRLTATQVANINALNESAPAASSAGPSFRAP [pro-peptide variant D2I, D21T, D22Q (Method B)]",–,> 1.2
"MSNGAGEETKSYAETYRLTATQVANINALNESAPAASSAGPSFRAP [pro-peptide variant D2S, D21T, D22Q (Method B)]",–,> 1.2
"MDNGAGEETKSYAETYRVTATDVANINALNESAPAASSAGPSFRAP [pro-peptide variant L18V, D21T (Method B)]",–,> 2
"MSNGAGSETKSYAETYRLTAIDVANINALNESAPAASSAGPSFRAP [pro-peptide variant D2S, E7S, D21I (Method B)]",–,> 1.2
MFNGAGEETKSYAETYRLTADDVANINALNESAPAASSAGPSFRAP [pro-peptide variant D2F (Method B)],–,> 1.2
"MDNGAGSETKSYAETYRVTAIDVANINALNESAPAASSAGPSFRAP [pro-peptide variant E7S, L18V, D21I (Method B)]",–,> 2
"MDNGAGSETKSYAETYRLTATQVANINALNESAPAASSAGPSFRAP [pro-peptide variant E7S, D21T, D22Q (Method B)]",–,> 1.2
